Experimental data as given in ChEMBL document CHEMBL1201862, “PubChem BioAssay data set” (2004).
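Test compounds were applied to cells in 96-well plates for 48 hours at 5 doses. GI50 = concentration required for 50% inhibition of growth.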 Active and inactive are the calls of the source. Rule as the data show it: active = GI50 up to about 1.1 µM and inactive = higher.

Legend:
Assay in all cases: inhibition of tumour cell growth, NCI panel, 48 h
T47D = system: T47D
MCF7 = system: MCF7
MDA-N = system: MDA-N
KM-20L2 = system: KM-20L2
DLD-1 = system: DLD-1
M19-MEL = system: M19-MEL
DMS-114 = system: DMS-114
XF498 = system: XF498

Structure (SMILES): Oc1ccc(-c2nc(-c3ccc4ccccc4n3)c(-c3ccc(F)cc3)[nH]2)cc1
- GI50 (T47D): 7.11 µM (inactive)
- GI50 (MCF7): 4.61 µM (inactive)
- GI50 (MDA-N): 11.9 µM (inactive)

Structure (SMILES): Nc1nc2c(ncn2Cc2ccc(CO)cc2)c(=O)[nH]1
- GI50 (T47D): > 100 µM (inactive)
- GI50 (MCF7): > 100 µM (inactive)

Structure (SMILES): Cc1cn(CC2=NCCN2)c(=O)[nH]c1=O
- GI50 (T47D): > 100 µM (inactive)
- GI50 (MCF7): > 100 µM (inactive)
- GI50 (MDA-N): > 100 µM (inactive)

Structure (SMILES): OCCSCC(O)Cn1cnc2c(O)nc(Nc3ccccc3)nc21 (stereo unspecified)
- GI50 (T47D): > 100 µM (inactive)
- GI50 (MCF7): > 100 µM (inactive)
- GI50 (MDA-N): > 100 µM (inactive)

Structure (SMILES): CN(C)C(=S)C(Cl)(c1ccccc1)c1ccccc1
- GI50 (T47D): 22.4 µM (inactive)
- GI50 (MCF7): 28.6 µM (inactive)
- GI50 (MDA-N): 47.6 µM (inactive)

Structure (SMILES): CCOC(=O)NC(=O)c1cn(CCOC(=O)NCCCCCCNC(=O)OCCn2cc(C(=O)NC(=O)OCC)c(=O)[nH]c2=O)c(=O)[nH]c1=O
- GI50 (KM-20L2): > 100 µM (inactive)
- GI50 (DLD-1): > 100 µM (inactive)
- GI50 (M19-MEL): > 100 µM (inactive)
- GI50 (DMS-114): > 100 µM (inactive)

Structure (SMILES): CCCOC(=O)C1C2CCC(O2)C1C(=O)O (stereo unspecified)
- GI50 (T47D): > 100 µM (inactive)
- GI50 (MCF7): > 100 µM (inactive)
- GI50 (MDA-N): > 100 µM (inactive)

Structure (SMILES): COc1cc(OC)nc(NC(=O)NS(=O)(=O)c2cccc3ncn(C)c(=O)c23)n1
- GI50 (T47D): > 100 µM (inactive)
- GI50 (MCF7): > 100 µM (inactive)
- GI50 (MDA-N): > 100 µM (inactive)

Structure (SMILES): COc1ccc(CC(COS(=O)(=O)c2ccc(C)cc2)NS(=O)(=O)c2ccc(C)cc2)cc1 (stereo unspecified)
- GI50 (T47D): 5.45 µM (inactive)
- GI50 (MCF7): 8.24 µM (inactive)
- GI50 (MDA-N): 19.6 µM (inactive)

Structure (SMILES): C=CCN1CN(C2CCCCC2)CSC1=S
- GI50 (T47D): 0.883 µM (active)
- GI50 (MCF7): 1.26 µM (inactive)
- GI50 (MDA-N): 2.16 µM (inactive)

Structure (SMILES): C[C@@]12C[C@@H](c3ccccc3O1)N1CCCCSC1=N2
- GI50 (T47D): > 100 µM (inactive)
- GI50 (MCF7): > 100 µM (inactive)
- GI50 (MDA-N): > 100 µM (inactive)

Structure (SMILES): COc1ccc2c(c1)C(=O)CCc1cc(OC)c(OC)c(OC)c1-2
- GI50 (MCF7): < 0.01 µM (active)

Structure (SMILES): COc1cccc2c1C(=O)c1c(O)c3c(c(O)c1C2=O)C[C@@](O)(C(=O)CO)CC3OC1CC(NCCOCC(OC(C)=O)OC(C)=O)C(O)C(C)O1 (stereo partly specified)
- GI50 (KM-20L2): < 0.01 µM (active)
- GI50 (XF498): < 0.01 µM (active)
- GI50 (DLD-1): 0.01 µM (active)
- GI50 (M19-MEL): < 0.01 µM (active)
- GI50 (DMS-114): < 0.01 µM (active)

Structure (SMILES): Cc1cn(C2CC(O)C(Cn3nncc3Cn3ccc(=O)[nH]c3=O)O2)c(=O)[nH]c1=O (stereo unspecified)
- GI50 (T47D): > 100 µM (inactive)
- GI50 (MCF7): > 100 µM (inactive)
- GI50 (MDA-N): > 100 µM (inactive)

Structure (SMILES): COc1ccc(-n2c(N)c(C#N)[nH]c2=O)cc1
- GI50 (T47D): > 10 µM (inactive)
- GI50 (MDA-N): > 10 µM (inactive)

Structure (SMILES): CC(C)CCCC(C)[C@H]1CCC2[C@@H]3CCC4Cc5nc6c(nc5C[C@]4(C)C3CC[C@@]21C)CC1CC[C@@H]2C(CC[C@@]3(C)C2CC[C@@H]3C(C)CCCC(C)C)[C@@]1(C)C6 (stereo partly specified)
- GI50 (T47D): > 100 µM (inactive)
- GI50 (MCF7): > 100 µM (inactive)
- GI50 (MDA-N): > 100 µM (inactive)

Structure (SMILES): Nc1nc2[nH]cnc2c(=O)[nH]1
- GI50 (KM-20L2): > 100 µM (inactive)
- GI50 (XF498): > 100 µM (inactive)
- GI50 (DLD-1): > 100 µM (inactive)
- GI50 (M19-MEL): > 100 µM (inactive)

Structure (SMILES): CCCCCC/C=C1\CCC(CN2CCOCC2)C1=O (stereo unspecified)
- GI50 (KM-20L2): 20.2 µM (inactive)
- GI50 (XF498): 16.1 µM (inactive)
- GI50 (DLD-1): 10.5 µM (inactive)
- GI50 (DMS-114): 17.3 µM (inactive)

Structure (SMILES): O=C(Nc1sccc1S(=O)(=O)c1ccccc1)c1cccnc1
- GI50 (T47D): 70.6 µM (inactive)
- GI50 (MCF7): 8.07 µM (inactive)
- GI50 (MDA-N): 1.02 µM (active)

Structure (SMILES): CCN(CC)C(=O)N1CN(c2ccccc2)C2(CCN(CCCC3(c4ccc(F)cc4)OCCO3)CC2)C1=O
- GI50 (T47D): 5.9 µM (inactive)
- GI50 (MCF7): 4.75 µM (inactive)
- GI50 (MDA-N): 19.1 µM (inactive)

Structure (SMILES): CNC(=S)N/N=C(\C)c1cc(OC)c(OC)cc1O
- GI50 (T47D): > 100 µM (inactive)
- GI50 (MCF7): > 100 µM (inactive)
- GI50 (MDA-N): > 100 µM (inactive)

Structure (SMILES): CCOC(=O)c1c(C)n(-c2ccc(C)cc2)c2c1cc(O)c1[nH]c3c(c12)CCCC3
- GI50 (T47D): 20.9 µM (inactive)
- GI50 (MCF7): 16.5 µM (inactive)
- GI50 (MDA-N): 20.6 µM (inactive)

Structure (SMILES): CCOC(=O)c1c(CN2CCOCC2)n(Cc2ccccc2)c2c1cc(O)c1nc(C)c(C)nc12
- GI50 (T47D): 20 µM (inactive)
- GI50 (MCF7): 16.7 µM (inactive)
- GI50 (MDA-N): 72.8 µM (inactive)

Structure (SMILES): CCCCCCC(=O)C/C(=N/NC(N)=S)C(=O)NC1C2CC3CC(C2)CC1C3 (stereo unspecified)
- GI50 (KM-20L2): > 100 µM (inactive)
- GI50 (DLD-1): > 100 µM (inactive)
- GI50 (M19-MEL): > 100 µM (inactive)

Structure (SMILES): CCC1CCN=C(Cn2cc(C)c(=O)[nH]c2=O)N1 (stereo unspecified)
- GI50 (T47D): > 100 µM (inactive)
- GI50 (MCF7): > 100 µM (inactive)
- GI50 (MDA-N): > 100 µM (inactive)

Structure (SMILES): CNc1ccc(Cl)cc1C(=O)N1CCC[C@H]1CO
- GI50 (T47D): > 100 µM (inactive)
- GI50 (MCF7): > 100 µM (inactive)
- GI50 (MDA-N): > 100 µM (inactive)

Structure (SMILES): N#C/N=C1/c2ccccc2/C(=N/C#N)c2cc(CO)ccc21
- GI50 (T47D): 31.6 µM (inactive)
- GI50 (MCF7): 30.6 µM (inactive)
- GI50 (MDA-N): 36.6 µM (inactive)

Structure (SMILES): CCN(CC)c1ncnc2c1ncn2CCNC(CO)(CO)CO
- GI50 (T47D): > 100 µM (inactive)
- GI50 (MCF7): > 100 µM (inactive)
- GI50 (MDA-N): > 100 µM (inactive)

Structure (SMILES): CCCSc1ccc2[nH]c(N3C(=O)/C(=C/c4ccco4)N=C3c3ccccc3)cc2c1
- GI50 (T47D): 27.6 µM (inactive)
- GI50 (MCF7): 15.8 µM (inactive)
- GI50 (MDA-N): 6 µM (inactive)

Structure (SMILES): Oc1cccc2ccc(Br)nc12
- GI50 (T47D): 51.6 µM (inactive)
- GI50 (MCF7): > 100 µM (inactive)
- GI50 (MDA-N): > 100 µM (inactive)
